Results reported in patent US20220275372A1, “CONJUGATE AND USES THEREOF” (priority 2019, published 2022).

How the values were obtained:
WT mice = assay: Recovery time after injection, WT mice; format: in vivo, mouse; details: 30 mg/kg, age 8-12 weeks
Protocol: (§1) Animal model and ASO injections. Experiments were carried out in the University of Oxford or in the “Centre d'études fonctionnelles” (Faculté de Médecine Sorbonne University) according to UK and French legislation respectively (Ethics committee approval #1760-2015091512001083v6). The intravenous injections in HSA-LR or C57BL/6 mice were performed by single or multiple administrations via the tail vein. Doses of 5, 7.5, 12.5, 30 or 40 mg/kg of peptide-PMO-CAG7 and 12.5 or 200 mg/kg of PMO were diluted in 0.9% saline and given at a volume of 5-6 μL/g of body weight. Multiple injections were done at 2 weeks apart. Myotonia was evaluated and tissues were harvested 2 weeks after the last injection. For long-term experiments, tissues were harvested 3 months after the injection. For toxicology measurements, tissues were harvested after 1 week. Urine was tested by ELISAs (R&D cat# MKM100) with samples diluted to fit within standard curve. Values were normalised to urinary creatinine levels (Harwell) to account for urine protein concentration

[1] = ELISA biodistribution of PMO in tissues of treated HSA-LR mice; format: in vivo, mouse; details: for delivery of PMO to muscle: 2 weeks after IV administration
Protocol: Animal model and ASO injections. […] The intravenous injections in HSA-LR or C57BL/6 mice were performed by single or multiple administrations via the tail vein. […] Multiple injections were done at 2 weeks apart. Myotonia was evaluated and tissues were harvested 2 weeks after the last injection. For long-term experiments, tissues were harvested 3 months after the injection. For toxicology measurements, tissues were harvested after 1 week. Urine was tested by ELISAs (R&D cat# MKM100) with samples diluted to fit within standard curve. Values were normalised to urinary creatinine levels (Harwell) to account for urine protein concentration
ELISA based measurements of oligonucleotide concentrations in tissues. […] The probe was used to detect peptide-PMOs or naked PMO concentrations in eight different tissues (brain, kidney, liver, lung, heart, diaphragm, gastrocnemius and quadriceps) from treated HSA-LR mice.

[2] = tested on: Mbnl-dependent transcripts (Clcn1 exon 7a, Serca exon22, Mbnl1 exon 5, Ldb3 exon11); assay: RT-PCR splicing correction in muscle of HSA-LR mice; format: in vivo, mouse; details: for splicing defects (clcn1 exon 7a, serca exon22, mbnl1 exon 5): 30 mg/kg IV, gastrocnemius and quadriceps of HSA-LR mice, two weeks after treatment; for splicing of Clcn1 exon 7a, Serca exon22, Mbnl1 exon 5 and Ldb3 exon11: 30 and 40 mg/kg, gastrocnemius of HSA-LR mice; for duration of splicing correction after treatment / splicing correction after single low doses: HSA-LR mice; for splicing correction after single low doses: single low doses (5 and 7.5 mg/kg)
Protocol: as §1
RNA isolation, RT-PCR and qPCR analysis. For mice tissues: prior to RNA extraction, muscles were disrupted in TriReagent (Sigma-Aldrich) using Fastprep system and Lysing Matrix D tubes (MP biomedicals). For human cells: prior to RNA extraction, cells were lysed in a proteinase K buffer (500 mM NaCl, 10 mM Tris-HCl, pH 7.2, 1.5 mM MgCl2, 10 mM EDTA, 2% SDS and 0.5 mg/ml of proteinase K) for 45 min at 55° C. Total RNAs were isolated using TriReagent according to the manufacturer's protocol. One microgram of RNA was reverse transcribed using M-MLV first-strand synthesis system (Life Technologies) according to the manufacturer's instructions in a total of 20 μL. One microliter of cDNA preparation was subsequently used in a semi-quantitative PCR analysis according to standard protocol (ReddyMix, Thermo Scientific).
PCR amplification was carried out for 25-35 cycles within the linear range of amplification for each gene. PCR products were resolved on 1.5-2% agarose gels, ethidium bromide-stained and quantified with ImageJ software. The ratios of exon inclusion were quantified as a percentage of inclusion relative to total intensity of isoform signals. To quantify the mRNA expression, real-time PCR was performed according to the manufacturer's instructions. PCR cycles were a 15-min denaturation step followed by 50 cycles with a 94° C. denaturation for 15 s, 58° C. annealing for 20 s and 72° C. extension for 20 s.

human hepatocytes = assay: Cell viability in human hepatocytes; format: cell-based; details: 40 μM
Protocol: (§2) Cell culture and Peptide-PMO treatment. Immortalized myoblasts from healthy individual or DM1 patient with 2600 CTG repeats were cultivated in a growth medium consisting of a mix of M199:DMEM (1:4 ratio; Life technologies) supplemented with 20% FBS (Life technologies), 50 μg/ml gentamycin (Life technologies), 25 μg/ml fetuin, 0.5 ng/ml bFGF, 5 ng/ml EGF and 0.2 μg/ml dexamethasone (Sigma-Aldrich). Myogenic differentiation was induced by switching confluent cell cultures to DMEM medium supplemented with […] insulin (Sigma-Aldrich) for myoblasts. For treatment, WT or DM1 cells are differentiated for 4 days. Then, medium was changed with fresh differentiation medium with peptide-PMO conjugates at a 1, 2 ,5 10, 20 or 40 μM concentration. Cells were harvested for analysis 48 h after treatment. Cell viability was quantified in after 2 days of transfection of peptide-PMOs at 40 uM in human hepatocytes or at a 1, 2 ,5 10, 20 or 40 μM concentration in human myoblasts using a fluorescent-based assay (Promega).

human myoblasts = assay: Cell viability in human myoblasts; format: cell-based; details: 1-40 μM, 48 hours
Protocol: as §2

mice = assay: Mortality in mice; details: mouse, in vivo
[3] = 600 mg/kg (3 injections at 200 mg/kg) IV, 2 weeks post administration

## Ac-RBRRBRRFQILYRBHBH-Ab [DPEP3.1a]
WT mice
  recovery time after injection, time AV ± SD: 10 min

## Ac-RBRRBRFQILYBRBR-B [DPEP1.9]
[1]
  delivery of PMO to muscle: able to deliver the PMO to muscle successfully
[2]
  splicing defects (clcn1 exon 7a, serca exon22, mbnl1 exon 5): corrected to wild type levels
  splicing of Clcn1 exon 7a, Serca exon22, Mbnl1 exon 5 and Ldb3 exon11: splicing normalization to wild type levels
  duration of splicing correction after treatment: at least 3 months
  splicing correction after single low doses: significant

## Ac-RXRRBRR-FQILY-RBRXR-B [Pip9b2-PMO]
Human hepatocytes
  cell mortality in human hepatocytes: > 50%
Human myoblasts
  cell viability of human myoblasts: induced cell mortality at lower doses

## Ac-RBRRBRFQILYBRBR-E [DPEP1.9b]
[1]
  delivery of PMO to muscle: able to deliver the PMO to muscle successfully
WT mice
  recovery time after injection, time AV ± SD: 15 min

## CAGCAGCAGCAGCAGCAGCAG (all phosphorodiamidate morpholino (PMO); Cell-penetrating peptide conjugated to the 3' end in the conjugates, further chemistry not fully specified) [Naked PMO]
[1]; [3]
  pM in Tissue: Diaphragm: 30 pM
  pM in Tissue: Gastrocnemius: 18 pM
  pM in Tissue: Heart: 198 pM
  pM in Tissue: Kidney: 426748 pM
  pM in Tissue: Liver: 252 pM
  pM in Tissue: Lung: 113 pM
[1]; 3 injections at 200 mg/kg, 2 weeks post administration
  PMO levels in all tissues tested: low to non-detectable levels
[1]; two weeks after 3x200 mg/kg naked PMO IV
  PMO detected in muscle tissues: low pM

## Ac-RBRRBRFQILYRBHBH-B [DPEP3.8]
[2]
  splicing defects (clcn1 exon 7a, serca exon22, mbnl1 exon 5): corrected to wild type levels
  splicing of Clcn1 exon 7a, Serca exon22, Mbnl1 exon 5 and Ldb3 exon11: splicing normalization to wild type levels
  duration of splicing correction after treatment: at least 3 months
  splicing correction after single low doses: significant

## Ac-RXRRBRRXR-YQFLI-RXRBRXR-B [pip6a]
Human hepatocytes
  cell mortality in human hepatocytes: > 50%
Human myoblasts
  cell viability of human myoblasts: induced cell mortality at lower doses
mice
  dose that cannot be tested without causing high rates of mortality in mice: > 20 mg/kg
